The source of these data is US7074789B2, “Kinase inhibitors” (Amgen Inc., priority 1999, dated 2006).

Holding throughout (type): biochemical
The target of assay [1] is T1, Hck-1 (Homo sapiens, UniProt P08631).
T1 construct: Kinases are expressed as either kinase domains or full length constructs; made in house
Kind of assay: Kinase inhibition assay (33P transfer), Hck. To be noted: Table 6, Hck-1 kinase inhibition class.

The target in assay [2] is T2, Lyn (Homo sapiens, UniProt P07948).
T2 construct: Kinases are expressed as either kinase domains or full length constructs; made in house
Briefly: Kinase inhibition assay (33P transfer), Lyn. To be noted: Table 6, Lyn-1 kinase inhibition class. The essentials:
(§1)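 Read-out: scintillation counts of 33P moved from ATP onto synthetic peptide polymer coated on the well surface, after washing with 0.5% phosphoric acid. Enzymes were tagged (GST or polyHistidine) and came from bacterial or insect-cell expression. IC50 marks 50% loss of incorporated label.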

For assay [3], the target named is T3, AKT (Homo sapiens, UniProt Q9Y243).
T3 construct: Kinases are expressed as either kinase domains or full length constructs; made in house
Kind of assay: Kinase inhibition assay (33P transfer), AKT. To be noted: Table 2, kinase inhibition class; read-out: AKT3-1. The essentials: (§2)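 Kinase domains or full-length kinases, GST- or His-tagged and expressed in E. coli or baculovirus/High Five cells, transferred 33PO4 from ATP onto plate-bound poly(Glu,Tyr) 4:1 or poly(Arg,Ser) 3:1. After incubation, plates were washed with 0.5% phosphoric acid and counted by liquid scintillation.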

In assay [4] the target is T4, PDGFRB (Homo sapiens, UniProt P09619).
T4 construct: Kinases are expressed as either kinase domains or full length constructs; made in house
Kind of assay: Kinase inhibition assay (33P transfer), PDGFRB. To be noted: read-out: PDGFRB-1.

Assay [5] has as its target T5, Lck (Homo sapiens, UniProt P06239).
T5 construct: Kinases are expressed as either kinase domains or full length constructs; made in house
Kind of assay: Kinase inhibition assay (33P transfer), Lck. The note with it: Table 3; read-out: Lck-1. In a few lines: as §2

For assay [6], the target named is T6, Flt-1 (Homo sapiens, UniProt P17948).
T6 construct: Kinases are expressed as either kinase domains or full length constructs; made in house
Kind of assay: Kinase inhibition assay (33P transfer), Flt-1. The essentials: as §1

The target of assay [7] is T7, IGFR-1 (Homo sapiens, UniProt P08069).
T7 construct: Kinases are expressed as either kinase domains or full length constructs; made in house
Briefly: Kinase inhibition assay (33P transfer), IGFR-1. The note with it: Table 2, kinase inhibition class.

Assay [8] addresses T8, Zap-70 (Homo sapiens, UniProt P43403).
T8 construct: Kinases are expressed as either kinase domains or full length constructs; made in house
T8 sequence (P43403 1-619): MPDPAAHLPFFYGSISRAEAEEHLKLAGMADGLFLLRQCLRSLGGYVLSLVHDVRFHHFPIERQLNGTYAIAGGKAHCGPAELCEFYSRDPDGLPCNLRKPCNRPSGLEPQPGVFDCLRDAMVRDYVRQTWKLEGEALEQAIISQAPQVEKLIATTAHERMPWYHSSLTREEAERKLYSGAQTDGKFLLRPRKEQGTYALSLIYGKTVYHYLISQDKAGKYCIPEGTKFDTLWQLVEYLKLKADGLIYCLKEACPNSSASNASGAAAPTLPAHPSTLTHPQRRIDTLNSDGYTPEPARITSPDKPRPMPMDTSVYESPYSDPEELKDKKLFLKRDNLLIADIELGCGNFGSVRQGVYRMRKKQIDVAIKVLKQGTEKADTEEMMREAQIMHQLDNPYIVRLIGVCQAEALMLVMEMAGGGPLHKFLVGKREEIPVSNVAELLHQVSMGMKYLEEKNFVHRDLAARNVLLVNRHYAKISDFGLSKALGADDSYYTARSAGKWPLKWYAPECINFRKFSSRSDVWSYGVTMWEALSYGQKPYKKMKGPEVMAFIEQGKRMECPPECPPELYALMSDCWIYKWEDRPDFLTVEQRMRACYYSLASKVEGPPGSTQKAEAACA
Kind of assay: Kinase inhibition assay (33P transfer), Zap-70. The note with it: Table 3; read-out: Zap-1. In a few lines: as §2

Assay [9] concerns the target T9, Kdr (Homo sapiens, UniProt P35968).
T9 construct: Kinases are expressed as either kinase domains or full length constructs; made in house
Kind of assay: Kinase inhibition assay (33P transfer), Kdr. To be noted: Table 3; read-out: KDR-1. The essentials: as §2

Assay [10] has as its target T10, FGFR1 (Homo sapiens, UniProt P11362).
T10 construct: Kinases are expressed as either kinase domains or full length constructs; made in house
Briefly: Kinase inhibition assay (33P transfer), FGFR1. To be noted: read-out: FGFR1-1.

The target of assay [11] is T11, c-Met (Homo sapiens, UniProt P08581).
T11 construct: Kinases are expressed as either kinase domains or full length constructs; made in house
Briefly: Kinase inhibition assay (33P transfer), c-Met. The note with it: Table 2, kinase inhibition class; read-out: Met-1. In a few lines:
as §1

The structures appear in SMILES notation.

T6 sequence (P17948 27-1338, species assumed): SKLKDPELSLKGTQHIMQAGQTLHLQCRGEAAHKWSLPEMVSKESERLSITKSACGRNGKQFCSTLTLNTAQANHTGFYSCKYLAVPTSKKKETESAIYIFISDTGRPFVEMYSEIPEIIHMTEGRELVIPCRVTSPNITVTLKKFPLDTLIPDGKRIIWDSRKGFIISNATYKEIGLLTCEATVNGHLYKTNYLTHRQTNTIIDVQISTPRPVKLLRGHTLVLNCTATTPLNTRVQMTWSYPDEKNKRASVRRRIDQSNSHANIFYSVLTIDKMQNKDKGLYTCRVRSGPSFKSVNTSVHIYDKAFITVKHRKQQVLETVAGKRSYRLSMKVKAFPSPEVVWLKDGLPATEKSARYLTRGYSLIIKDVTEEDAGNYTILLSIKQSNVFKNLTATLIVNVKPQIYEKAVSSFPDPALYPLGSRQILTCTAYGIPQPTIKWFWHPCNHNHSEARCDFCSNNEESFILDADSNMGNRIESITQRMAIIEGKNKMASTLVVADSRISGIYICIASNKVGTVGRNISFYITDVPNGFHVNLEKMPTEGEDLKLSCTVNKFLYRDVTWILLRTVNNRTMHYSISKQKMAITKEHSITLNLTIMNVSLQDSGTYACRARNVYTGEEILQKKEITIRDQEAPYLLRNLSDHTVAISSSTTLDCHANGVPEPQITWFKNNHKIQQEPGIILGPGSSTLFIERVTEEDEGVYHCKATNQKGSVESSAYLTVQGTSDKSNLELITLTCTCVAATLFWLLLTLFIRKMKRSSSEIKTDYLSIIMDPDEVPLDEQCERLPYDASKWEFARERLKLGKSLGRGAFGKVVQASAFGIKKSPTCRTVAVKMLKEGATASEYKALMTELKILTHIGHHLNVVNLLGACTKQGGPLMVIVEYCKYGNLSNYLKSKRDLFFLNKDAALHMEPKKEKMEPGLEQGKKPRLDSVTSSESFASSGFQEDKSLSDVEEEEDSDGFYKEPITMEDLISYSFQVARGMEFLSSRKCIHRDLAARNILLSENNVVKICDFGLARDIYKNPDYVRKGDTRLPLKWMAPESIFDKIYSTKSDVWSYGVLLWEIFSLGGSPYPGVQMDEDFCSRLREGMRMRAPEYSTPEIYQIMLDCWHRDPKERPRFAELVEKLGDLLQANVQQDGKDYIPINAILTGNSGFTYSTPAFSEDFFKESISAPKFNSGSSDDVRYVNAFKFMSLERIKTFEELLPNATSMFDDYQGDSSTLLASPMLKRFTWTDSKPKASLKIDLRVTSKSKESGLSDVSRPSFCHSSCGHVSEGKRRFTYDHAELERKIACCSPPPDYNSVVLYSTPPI
T3 sequence (Q9Y243 whole entry, the tested form may be a part): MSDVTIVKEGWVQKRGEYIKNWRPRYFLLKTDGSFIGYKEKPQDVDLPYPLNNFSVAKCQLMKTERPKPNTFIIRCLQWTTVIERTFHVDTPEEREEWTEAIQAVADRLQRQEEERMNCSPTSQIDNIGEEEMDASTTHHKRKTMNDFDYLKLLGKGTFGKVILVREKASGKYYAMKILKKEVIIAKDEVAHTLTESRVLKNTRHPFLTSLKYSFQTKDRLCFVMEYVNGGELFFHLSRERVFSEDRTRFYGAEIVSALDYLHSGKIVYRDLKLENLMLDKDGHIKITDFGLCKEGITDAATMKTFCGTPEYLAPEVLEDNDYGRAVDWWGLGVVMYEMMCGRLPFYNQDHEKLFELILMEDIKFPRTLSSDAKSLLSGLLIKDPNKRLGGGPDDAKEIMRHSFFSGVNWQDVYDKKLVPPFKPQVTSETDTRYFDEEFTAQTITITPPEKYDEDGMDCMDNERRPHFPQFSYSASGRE
T5 sequence (P06239 whole entry, species assumed, the tested form may be a part): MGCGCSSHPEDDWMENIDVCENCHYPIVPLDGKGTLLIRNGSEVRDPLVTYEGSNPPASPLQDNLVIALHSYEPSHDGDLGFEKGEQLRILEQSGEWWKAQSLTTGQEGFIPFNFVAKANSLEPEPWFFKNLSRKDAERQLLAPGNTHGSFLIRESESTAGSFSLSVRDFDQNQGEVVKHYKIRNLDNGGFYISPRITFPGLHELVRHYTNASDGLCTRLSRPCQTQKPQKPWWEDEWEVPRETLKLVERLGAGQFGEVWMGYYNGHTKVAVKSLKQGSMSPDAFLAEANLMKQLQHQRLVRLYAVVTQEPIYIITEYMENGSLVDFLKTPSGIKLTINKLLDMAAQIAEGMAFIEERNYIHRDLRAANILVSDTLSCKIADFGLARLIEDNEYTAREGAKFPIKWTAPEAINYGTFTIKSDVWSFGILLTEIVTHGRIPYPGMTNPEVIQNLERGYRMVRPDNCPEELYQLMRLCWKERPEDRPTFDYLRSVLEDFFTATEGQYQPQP
T10 sequence (P11362 22-822, species assumed): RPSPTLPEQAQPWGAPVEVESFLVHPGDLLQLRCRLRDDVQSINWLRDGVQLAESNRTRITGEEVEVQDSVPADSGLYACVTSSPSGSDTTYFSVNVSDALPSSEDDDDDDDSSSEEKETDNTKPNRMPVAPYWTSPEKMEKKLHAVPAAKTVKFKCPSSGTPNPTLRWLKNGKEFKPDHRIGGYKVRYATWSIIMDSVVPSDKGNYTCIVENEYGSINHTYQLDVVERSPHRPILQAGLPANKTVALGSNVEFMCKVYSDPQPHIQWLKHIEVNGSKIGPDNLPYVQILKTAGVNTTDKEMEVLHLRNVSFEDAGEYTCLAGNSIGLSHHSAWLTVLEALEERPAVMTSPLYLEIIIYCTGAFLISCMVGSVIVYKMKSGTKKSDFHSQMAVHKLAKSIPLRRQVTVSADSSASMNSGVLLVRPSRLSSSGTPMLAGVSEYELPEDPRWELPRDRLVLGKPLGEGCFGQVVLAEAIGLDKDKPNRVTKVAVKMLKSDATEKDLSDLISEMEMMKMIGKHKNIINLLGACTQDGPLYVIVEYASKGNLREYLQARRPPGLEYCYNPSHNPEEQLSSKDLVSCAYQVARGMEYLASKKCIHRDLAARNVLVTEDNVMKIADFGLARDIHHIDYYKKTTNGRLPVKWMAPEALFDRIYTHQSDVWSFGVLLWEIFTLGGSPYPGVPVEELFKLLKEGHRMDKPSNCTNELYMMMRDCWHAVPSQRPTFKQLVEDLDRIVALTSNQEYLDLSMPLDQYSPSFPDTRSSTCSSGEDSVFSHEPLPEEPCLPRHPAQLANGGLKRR
T2 sequence (P07948 whole entry, species assumed, the tested form may be a part): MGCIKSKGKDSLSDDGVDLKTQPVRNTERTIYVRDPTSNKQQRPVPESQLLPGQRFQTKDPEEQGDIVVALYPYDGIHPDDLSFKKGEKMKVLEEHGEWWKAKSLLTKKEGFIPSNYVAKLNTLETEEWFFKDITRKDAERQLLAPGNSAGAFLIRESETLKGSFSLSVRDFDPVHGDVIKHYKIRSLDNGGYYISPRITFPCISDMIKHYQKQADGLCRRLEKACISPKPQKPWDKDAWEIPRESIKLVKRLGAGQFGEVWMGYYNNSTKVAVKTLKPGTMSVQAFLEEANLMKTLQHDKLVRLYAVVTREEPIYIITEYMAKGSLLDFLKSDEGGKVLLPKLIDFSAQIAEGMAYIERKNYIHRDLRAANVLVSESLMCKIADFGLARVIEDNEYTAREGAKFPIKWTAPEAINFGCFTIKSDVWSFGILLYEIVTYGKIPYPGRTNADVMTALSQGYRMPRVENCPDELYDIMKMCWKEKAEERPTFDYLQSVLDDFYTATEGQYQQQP
T7 sequence (P08069 31-1367): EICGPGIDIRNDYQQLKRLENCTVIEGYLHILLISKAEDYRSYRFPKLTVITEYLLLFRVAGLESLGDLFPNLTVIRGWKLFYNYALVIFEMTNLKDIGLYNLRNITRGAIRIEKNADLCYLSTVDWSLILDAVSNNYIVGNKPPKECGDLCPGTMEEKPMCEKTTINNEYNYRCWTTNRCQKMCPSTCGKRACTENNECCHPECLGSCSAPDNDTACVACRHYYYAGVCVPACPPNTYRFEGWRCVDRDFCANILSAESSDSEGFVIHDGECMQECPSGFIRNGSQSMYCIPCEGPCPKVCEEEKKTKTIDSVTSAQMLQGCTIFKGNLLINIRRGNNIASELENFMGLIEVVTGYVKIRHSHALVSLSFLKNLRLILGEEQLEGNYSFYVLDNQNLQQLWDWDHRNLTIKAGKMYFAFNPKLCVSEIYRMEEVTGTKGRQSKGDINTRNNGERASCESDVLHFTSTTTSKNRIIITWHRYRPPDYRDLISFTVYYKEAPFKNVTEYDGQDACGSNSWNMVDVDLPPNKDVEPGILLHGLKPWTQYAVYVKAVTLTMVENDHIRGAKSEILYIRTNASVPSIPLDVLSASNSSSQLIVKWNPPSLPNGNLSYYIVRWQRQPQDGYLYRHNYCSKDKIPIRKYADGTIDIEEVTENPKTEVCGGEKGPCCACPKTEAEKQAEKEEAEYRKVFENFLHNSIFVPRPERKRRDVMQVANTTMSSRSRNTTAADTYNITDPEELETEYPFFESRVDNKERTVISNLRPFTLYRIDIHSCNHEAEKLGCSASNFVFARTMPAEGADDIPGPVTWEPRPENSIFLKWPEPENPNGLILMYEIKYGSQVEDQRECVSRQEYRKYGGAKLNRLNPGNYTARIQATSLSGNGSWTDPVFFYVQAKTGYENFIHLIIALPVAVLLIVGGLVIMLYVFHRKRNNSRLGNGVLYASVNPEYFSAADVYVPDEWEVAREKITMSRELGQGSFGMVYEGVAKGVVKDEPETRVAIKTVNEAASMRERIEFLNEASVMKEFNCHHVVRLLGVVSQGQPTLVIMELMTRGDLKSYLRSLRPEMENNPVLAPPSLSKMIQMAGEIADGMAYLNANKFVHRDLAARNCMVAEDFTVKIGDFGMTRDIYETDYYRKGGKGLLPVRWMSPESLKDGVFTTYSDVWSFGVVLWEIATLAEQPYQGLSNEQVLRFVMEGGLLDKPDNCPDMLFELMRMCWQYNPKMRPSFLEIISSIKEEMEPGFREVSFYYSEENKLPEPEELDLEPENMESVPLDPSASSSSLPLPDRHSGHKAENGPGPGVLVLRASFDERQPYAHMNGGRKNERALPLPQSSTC

Consider `CCOc1ccc(Nc2ncnc(Nc3ccc(C)c(O)c3)n2)cc1OCC` [Compound 121], for which the IC50 was over 11.8 µM in assay [1]; under 1.05 µM in assay [2]; over 11.8 µM in [3]; under 1.05 µM in assay [4]; 1.05 to 6.29 µM in [5]; under 1.05 µM in assay [6]. In addition, the IC50 was over 11.8 µM in assay [7]; over 11.8 µM in [8]; under 1.05 µM in [9]; 1.05 to 6.29 µM in assay [10]; 9.18 to 11.8 µM in assay [11].
Consider `COCCOc1ccc(Nc2ncnc(Nc3ccc(C)c(O)c3)n2)cc1OC` [Compound 123], for which the IC50 was 6.04 to 8.81 µM in assay [1]; under 1.01 µM in assay [2]; over 11.3 µM in [3]; under 1.01 µM in assay [4]; 1.01 to 6.04 µM in assay [5]; under 1.01 µM in [6]. Further, the IC50 in assay [7] was 1.01 to 6.04 µM; in assay [8], over 11.3 µM; in assay [9], under 1.01 µM; in assay [10] it was 1.01 to 6.04 µM; in assay [11], over 11.3 µM.
`COCCOc1ccc(Nc2ncnc(Nc3ccc(C)c(O)c3)n2)cc1OCCOC` [Compound 125]: the IC50 is 7.93 to 10.2 µM in assay [1]; under 0.906 µM in [2]; over 10.2 µM in assay [3]; under 0.906 µM in assay [4]; 0.906 to 5.44 µM in [5]; under 0.906 µM in assay [6]. Besides, the IC50 in assay [7] is 0.906 to 5.44 µM; in assay [8], over 10.2 µM; in [9] it was under 0.906 µM; in assay [10] it was 0.906 to 5.44 µM; in assay [11] it was over 10.2 µM.
On to `COCCOc1cc(Nc2ncnc(Nc3ccc(C)c(O)c3)n2)ccc1OC` [Compound 127], for which the IC50 in assay [1] is 1.01 to 6.04 µM; in assay [2], under 1.01 µM; in [3], over 11.3 µM; in [4] it was under 1.01 µM; in [5], 1.01 to 6.04 µM; in assay [6], under 1.01 µM. For the same compound, the IC50 in assay [7] was 1.01 to 6.04 µM; in assay [8], over 11.3 µM; in [9], under 1.01 µM; in assay [10] it was 1.01 to 6.04 µM; in [11], over 11.3 µM.
On to `CCOc1ccc(Nc2ncnc(Nc3ccc(OCc4ccccc4)cc3)n2)cc1OCC` [Compound 170], for which the IC50 was over 9.84 µM in [1]; over 9.84 µM in assay [2]; 0.874 to 5.25 µM in assay [3]; over 9.84 µM in [4]; over 9.84 µM in [5]; over 9.84 µM in assay [6]. For the same compound, the IC50 in assay [7] is over 9.84 µM; in assay [8], 5.25 to 7.65 µM; in assay [9], 0.874 to 5.25 µM; in assay [10], over 9.84 µM; in assay [11] it was 5.25 to 7.65 µM.
As to `COc1ccc(Sc2ncnc(Nc3cc(OC)c(OC)c(OC)c3)n2)cc1` [Compound 175], the IC50 in [1] is over 11.2 µM; in assay [2], 5.99 to 8.74 µM; in [3] it was over 11.2 µM; in assay [4] it was under 0.999 µM; in assay [5] it was 0.999 to 5.99 µM; in assay [6] it was 5.99 to 8.74 µM. Moreover, the IC50 in assay [7] is 0.999 to 5.99 µM; in assay [8], over 11.2 µM; in [9] it was under 0.999 µM; in [10] it was over 11.2 µM; in assay [11] it was 0.999 to 5.99 µM.
`COc1cc(Nc2ncnc(N3CCc4ccccc43)n2)cc(OC)c1OC` [Compound 184]: the IC50 in [1] is over 11.9 µM; in assay [2], 1.05 to 6.33 µM; in assay [3], over 11.9 µM; in [4] it was under 1.05 µM; in [5], 1.05 to 6.33 µM; in assay [6], under 1.05 µM. The IC50 in assay [7] is over 11.9 µM; in [8], over 11.9 µM; in assay [9], under 1.05 µM; in assay [10], 6.33 to 9.22 µM; in [11], 9.22 to 11.9 µM.
As for `COc1cc(Nc2ncnc(-n3cnc4ccccc43)n2)cc(OC)c1OC` [Compound 186], the IC50 is over 11.9 µM in assay [1]; 9.25 to 11.9 µM in assay [2]; over 11.9 µM in [3]; under 1.06 µM in assay [4]; 1.06 to 6.34 µM in [5]; 1.06 to 6.34 µM in assay [6]. For the same compound, the IC50 in [7] was 1.06 to 6.34 µM; in assay [8], over 11.9 µM; in assay [9] it was under 1.06 µM; in [10], over 11.9 µM; in [11] it was 1.06 to 6.34 µM.
For the compound `COc1cc(Nc2ncnc(N3CCc4cc([N+](=O)[O-])ccc43)n2)cc(OC)c1OC` [Compound 187], the IC50 in [1], in [2], in assay [3], in [4], in assay [5] and in assay [6] was over 10.6 µM each time. Further, the IC50 was over 10.6 µM in assay [7]; over 10.6 µM in assay [8]; 0.942 to 5.65 µM in [9]; over 10.6 µM in assay [10]; over 10.6 µM in assay [11].
Take `COc1ccc2c(ccn2-c2ncnc(Nc3cc(OC)c(OC)c(OC)c3)n2)c1` [Compound 196]: the IC50 in assay [1] was over 11 µM; in assay [2], 5.89 to 8.59 µM; in [3] it was over 11 µM; in assay [4] it was under 0.982 µM; in [5], over 11 µM; in assay [6] it was 0.982 to 5.89 µM. Further, the IC50 was 0.982 to 5.89 µM in [7]; over 11 µM in assay [8]; under 0.982 µM in assay [9]; 5.89 to 8.59 µM in assay [10]; over 11 µM in assay [11].
Consider `COc1cc(Nc2ncnc(-n3ccc4cc(Cl)ccc43)n2)cc(OC)c1OC` [Compound 198], for which the IC50 was over 10.9 µM in assay [1]; over 10.9 µM in assay [2]; over 10.9 µM in assay [3]; under 0.971 µM in assay [4]; over 10.9 µM in assay [5]; 0.971 to 5.83 µM in assay [6]. Further, the IC50 was over 10.9 µM in assay [7]; over 10.9 µM in [8]; 0.971 to 5.83 µM in [9]; over 10.9 µM in assay [10]; over 10.9 µM in assay [11].
In the case of `COc1cc(Nc2ncnc(-n3ccc4cc(OCc5ccccc5)ccc43)n2)cc(OC)c1OC` [Compound 200], the IC50 was over 9.31 µM in assay [1]; over 9.31 µM in assay [2]; over 9.31 µM in assay [3]; 0.827 to 4.96 µM in assay [4]; 7.24 to 9.31 µM in [5]; over 9.31 µM in assay [6]. Also, the IC50 in assay [7] was over 9.31 µM; in assay [8], over 9.31 µM; in assay [9] it was 4.96 to 7.24 µM; in [10], 7.24 to 9.31 µM; in [11], 7.24 to 9.31 µM.
As for `COc1cc(Nc2ncnc(-n3ccc4ccc(Cl)cc43)n2)cc(OC)c1OC` [Compound 237], the IC50 in [1] is over 10.9 µM; in [2], 5.83 to 8.5 µM; in [3], over 10.9 µM; in [4], over 10.9 µM; in assay [5] it was 0.971 to 5.83 µM; in assay [6], 8.5 to 10.9 µM. For the same compound, the IC50 in assay [7] is under 0.971 µM; in [8], 8.5 to 10.9 µM; in assay [9], under 0.971 µM; in assay [10], 5.83 to 8.5 µM; in [11] it was 5.83 to 8.5 µM.
On to `COc1cc(Nc2ncnc(-n3ccc4c(OC)cccc43)n2)cc(OC)c1OC` [Compound 238], for which the IC50 in assay [1] was over 11 µM; in [2] it was over 11 µM; in assay [3] it was over 11 µM; in assay [4], 0.982 to 5.89 µM; in assay [5], over 11 µM; in [6] it was over 11 µM. The IC50 in assay [7] was over 11 µM; in [8] it was over 11 µM; in assay [9], 0.982 to 5.89 µM; in assay [10], over 11 µM; in assay [11], over 11 µM.
`COc1cc2ccn(-c3ncnc(Nc4cc(OC)c(OC)c(OC)c4)n3)c2cc1OC` [Compound 239]: the IC50 in [1], in [2], in assay [3], in assay [4], in assay [5] and in assay [6] was over 10.3 µM in each case. The IC50 was over 10.3 µM in assay [7]; over 10.3 µM in [8]; 0.914 to 5.49 µM in [9]; over 10.3 µM in assay [10]; over 10.3 µM in assay [11].
